Measured values as given in PubChem BioAssay (NCI).
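Briefly, cells in 96-well plates were exposed to five compound concentrations for 48 h, and endpoints were estimated by linear interpolation. Abbreviation: GI50, concentration required for 50% inhibition of growth. The concentration for full growth arrest is given as TGI.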

Assays:
Experiment in all cases: growth of human tumour cells (NCI), 48 h
K-562 leukemia = test system: K-562 leukemia
MDA-MB-231 breast = test system: MDA-MB-231 breast
OVCAR-4 ovarian = test system: OVCAR-4 ovarian
RXF 393 renal = test system: RXF 393 renal
CCRF-CEM leukemia = test system: CCRF-CEM leukemia
SK-MEL-2 melanoma = test system: SK-MEL-2 melanoma
HT29 colon = test system: HT29 colon
HL-60(TB) leukemia = test system: HL-60(TB) leukemia
MOLT-4 leukemia = test system: MOLT-4 leukemia
COLO 205 colon = test system: COLO 205 colon
ACHN renal = test system: ACHN renal
CAKI-1 renal = test system: CAKI-1 renal
SF-268 CNS = test system: SF-268 CNS
SW-620 colon = test system: SW-620 colon
TK-10 renal = test system: TK-10 renal
MCF7 breast = test system: MCF7 breast
HCC-2998 colon = test system: HCC-2998 colon
SR leukemia = test system: SR leukemia

Compound | TGI (K-562 leukemia) [µM] | TGI (MDA-MB-231 breast) [µM] | TGI (OVCAR-4 ovarian) [µM] | TGI (RXF 393 renal) [µM] | TGI (CCRF-CEM leukemia) [µM] | TGI (SK-MEL-2 melanoma) [µM] | TGI (HT29 colon) [µM] | TGI (HL-60(TB) leukemia) [µM] | TGI (MOLT-4 leukemia) [µM] | TGI (COLO 205 colon) [µM] | TGI (ACHN renal) [µM] | TGI (CAKI-1 renal) [µM] | TGI (SF-268 CNS) [µM] | TGI (SW-620 colon) [µM] | TGI (TK-10 renal) [µM] | TGI (MCF7 breast) [µM] | TGI (HCC-2998 colon) [µM] | TGI (SR leukemia) [µM] | GI50 (CCRF-CEM leukemia) [µM]
CC(=O)NC1C(OCc2ccccc2)OC(CO)C(O)C1OC(C)C(=O)NC(C(=O)NC(CCC(=O)Nc1ccc2c(c1)CN1C(=O)c3ccccc3C1=N2)C(N)=O)C(C)C (stereo unspecified) | > 100 | > 100 | > 100 | > 100 | > 100 | > 100 | > 100 | > 100 | > 100 | > 100 | > 100 | > 100 | > 100 | > 100 | > 100 | > 100 | > 100 | > 100 | –
CCOC(=O)c1c(C)n(-c2ccc(C)cc2)c2c1cc(O)c1[nH]c3c(c12)CCCC3 | 48.8 | 81.7 | 51.3 | 27 | 7.64 | 33.7 | 32.3 | 51.7 | 22.4 | > 100 | > 100 | > 100 | 55.2 | 39 | 77.8 | 65.6 | 34.1 | 11.5 | –
C=C1C(=O)OC2C3C(=C)[C@@H](OC(C)=O)CC3C(C)=CC(OC(=O)C(C)(O)C(C)OC(C)=O)[C@@H]12 (stereo partly specified) | 14.8 | 34.1 | 23.3 | 17.4 | 7.51 | 20.6 | 19.4 | 5.57 | > 100 | 15.9 | 24.8 | 12.4 | 37.9 | 10.7 | 18.4 | 22.9 | 29.7 | 68.9 | –
COc1ccc(N=C/C=C/C(=C/COC(C)=O)OC(C)=O)cc1 | 19.2 | 65.3 | 93.8 | 57.4 | > 100 | 48.1 | 70.6 | 98.5 | > 100 | 73.5 | 34.4 | 63.8 | 86 | 32.6 | > 100 | > 100 | > 100 | > 100 | –
Nc1nc(Cl)c(N)c(NCC2(CO)CC(O)C2)n1 (stereo unspecified) | > 100 | > 100 | > 100 | > 100 | > 100 | > 100 | > 100 | > 100 | > 100 | > 100 | > 100 | > 100 | > 100 | > 100 | > 100 | > 100 | > 100 | > 100 | –
Cc1ccc2c(c1)C(=O)c1ccc(C)nc1C2=O | > 100 | > 100 | 83.7 | > 100 | > 100 | > 100 | > 100 | > 100 | > 100 | > 100 | > 100 | > 100 | > 100 | > 100 | > 100 | > 100 | 97.1 | > 100 | –
CSC(=S)Nc1cc(C)ccn1 | > 100 | 88.8 | > 100 | > 100 | > 100 | > 100 | > 100 | > 100 | > 100 | > 100 | > 100 | > 100 | > 100 | > 100 | > 100 | > 100 | > 100 | > 100 | –
CCCCC[C@H]1CC=CC(=O)O1 | > 100 | 23 | 27.3 | 9.16 | 40.6 | 19.1 | 19.8 | 20.3 | 18.8 | 15.1 | 43.6 | 10.4 | 22.3 | 18.7 | 40.4 | 19.6 | 19.7 | 15.4 | –
c1cc(-c2ccc(Oc3ccc(-c4ccncc4)cc3)cc2)ccn1 | > 100 | > 100 | > 100 | > 86 | > 47.3 | > 100 | > 49.6 | 11.1 | 41.5 | 18.7 | > 100 | > 27.1 | > 100 | > 100 | > 66.1 | > 100 | > 54.5 | 9.97 | –
O=Cc1cc(O)ccc1Br | 19.2 | > 100 | > 65.7 | > 100 | 15.5 | > 93.2 | 67.5 | 5.39 | 43.8 | > 100 | 60 | 48.1 | > 100 | > 100 | 99 | > 100 | 30.1 | 17.3 | –
COc1ccc(OC)c(CC(=O)c2ccc(O)c(C(=O)NCCc3ccc(F)cc3)c2)c1 | > 100 | 20.4 | 31 | 2.9 | 6.65 | 12.3 | 30.5 | 7.29 | 17.4 | 31.7 | 56.9 | 14.5 | 25 | > 100 | 45.8 | 24.6 | 13.1 | 10 | 2.4
CCOC(=O)c1cc(NC(=O)c2ccccc2)c(=O)n2c(cc3c(Cl)cccc32)c1O | > 100 | > 100 | > 100 | > 100 | > 100 | > 100 | > 100 | > 100 | > 100 | > 100 | > 100 | > 100 | > 100 | > 100 | > 100 | > 100 | > 100 | > 100 | –
O=C(CCl)Nc1ccc(-c2nc3ccccc3s2)cc1 | 4.56 | 16.8 | 15.2 | 7.67 | > 36.7 | 8.37 | 5.57 | 5.73 | 12.8 | 3.82 | 13.8 | 3.38 | 8.44 | 5.07 | 22.6 | 2.39 | 5.91 | 5.49 | –
COc1cc([C@@H]2c3cc4c(cc3[C@@H](N=Cc3ccc(C(=O)O[C@H]5C[C@H]6OC[C@@]6(OC(C)=O)[C@H]6[C@H](OC(=O)c7ccccc7)[C@]7(O)C[C@H](OC(=O)[C@H](OC(=O)c8ccc(C=N[C@@H]9c%10cc%11c(cc%10[C@@H](c%10cc(OC)c(O)c(OC)c%10)[C@H]%10C(=O)OC[C@@H]%109)OCO%11)cc8)[C@@H](NC(=O)c8ccccc8)c8ccccc8)C(C)=C([C@@H](OC(C)=O)C(=O)[C@]56C)C7(C)C)cc3)C3COC(=O)C32)OCO4)cc(C)c1O (stereo partly specified) | > 50 | > 43.4 | > 50 | > 50 | > 50 | > 50 | > 25.2 | > 50 | > 50 | > 50 | > 50 | > 50 | > 50 | > 50 | > 50 | 48.5 | > 50 | > 50 | –
C=CCSC1=N/C(=C\c2ccco2)C(=O)N1CC=C | > 100 | > 100 | > 100 | 65.7 | > 100 | > 100 | > 100 | 60.2 | > 100 | > 100 | > 100 | > 100 | > 100 | > 100 | > 100 | > 100 | > 100 | > 100 | –
COc1cc(/C=C2\N=C(c3ccccc3)N(/N=C/c3cc4cc(C)ccc4nc3Cl)C2=O)ccc1O | > 100 | > 100 | > 100 | > 100 | 36 | 38.4 | > 100 | 76.6 | 47.8 | > 100 | > 100 | > 100 | > 100 | > 100 | > 100 | 63.1 | > 100 | 47.1 | –
Nc1nc(Cl)cc(NCC2(CO)CC(O)C2)n1 (stereo unspecified) | > 100 | > 100 | > 100 | > 100 | > 100 | > 100 | > 100 | > 100 | > 100 | > 100 | > 100 | > 100 | > 100 | > 100 | > 100 | > 100 | > 100 | > 100 | –
CC(=O)NC1C(OCc2ccccc2)OC(CO)C(O)C1OCC(=O)NC(C)C(=O)NC(CCC(=O)Nc1ccc2c(c1)CN1C(=O)c3ccccc3C1=N2)C(N)=O (stereo unspecified) | > 100 | > 100 | > 100 | > 100 | > 100 | > 100 | > 100 | > 100 | > 100 | > 100 | > 100 | > 100 | > 100 | > 100 | > 100 | > 100 | > 100 | > 100 | –
O=C1NC(c2ccccc2)C1N(Cc1ccccc1)Cc1ccccc1 (stereo unspecified) | > 100 | > 100 | > 100 | > 100 | > 100 | > 100 | > 100 | > 100 | > 100 | > 100 | > 100 | > 100 | > 100 | > 100 | > 100 | > 100 | > 100 | > 100 | –
c1ncc(C23C4C5C6C4C2C6C53)[nH]1 (stereo unspecified) | > 100 | > 100 | > 100 | > 100 | > 100 | > 100 | > 100 | > 100 | > 100 | > 100 | > 100 | > 100 | > 100 | > 100 | > 100 | > 100 | > 100 | > 100 | –
CSc1nc2ccccc2c(=O)n1-c1cccc(C)c1 | > 100 | > 100 | > 100 | > 100 | > 100 | > 100 | > 100 | 9.77 | 98.2 | > 100 | > 100 | > 100 | > 100 | > 100 | > 100 | > 100 | 35.1 | 49.7 | –
COC(=O)/C=C1/OC(c2ccccc2)=CC1=O | 44.6 | 31.4 | 31.2 | 27.7 | > 61.2 | 47.9 | 39 | 6.14 | 17.3 | 29.5 | > 56 | 33.9 | 44.7 | 32.3 | 37.2 | 25.4 | 33.5 | > 60.8 | –
ClCc1nc2cc(Cl)ccc2o1 | > 100 | 10.2 | 3.45 | 29.8 | > 25.7 | 16 | 6.5 | 21.1 | > 100 | 9 | 3.33 | 3.24 | 26.7 | > 67.2 | 7.9 | 7.65 | 5.9 | > 37 | –
CC1(c2nc3ccccc3[nH]2)CCC(CO)C(C)(C)O1 (stereo unspecified) | > 100 | > 100 | > 100 | > 100 | > 100 | > 100 | > 100 | > 100 | > 100 | > 100 | > 100 | > 100 | > 100 | > 100 | > 100 | > 100 | > 100 | 33.7 | –
CC(=O)N(CCc1ccccc1)C(C)(C#N)c1ccccc1 (stereo unspecified) | > 100 | > 100 | > 100 | > 100 | > 100 | > 100 | > 100 | > 100 | > 100 | > 100 | > 100 | > 100 | > 100 | > 100 | > 100 | > 100 | > 100 | > 100 | –
